# In ChEMBL document CHEMBL3808384, “Synthesis of new tricyclic thiolactams as potent antitumor agent for pancreatic cancer” (Bioorg Med Chem Lett, 2016):
# Assays:
# [1] = Cytotoxicity against human PANC1 cells cultured in nutrient-deprived medium; format: functional, PANC-1
# [2] = Cytotoxicity against human PANC1 cells at 30 uM cultured in dulbecco's modified eagle's medium; format: functional; settings: PANC-1
# Mus musculus [3] = assay: Toxicity in BALB/cAJcl-nu/nu mouse xenografted with human MIAPaCa2 cells assessed as body weight loss at 8.02 mg/kg, ip measured every fifth day; format: organism-based, MIA PaCa-2; settings: in vivo
# [4] = Antitumor activity against human MIAPaCa2 cells xenografted in BALB/cAJcl-nu/nu mouse assessed as reduction in tumor volume at 8.02 mg/kg, ip measured every fourth day relative to control; format: functional, MIA PaCa-2
# [5] = Antitumor activity against human MIAPaCa2 cells xenografted in BALB/cAJcl-nu/nu mouse assessed as tumor volume at 8.02 mg/kg, ip measured every fourth day (reference value: 1917.6 +/- 280.3 mm3); format: functional, MIA PaCa-2
# [6] = Cytotoxicity against human PANC1 cells cultured in dulbecco's modified eagle's medium; format: functional, PANC-1
# [7] = Cytotoxicity against human PANC1 cells at 30 uM cultured in nutrient-deprived medium; format: functional; settings: PANC-1
# [8] = Antitumor activity against human MIAPaCa2 cells xenografted in BALB/cAJcl-nu/nu mouse assessed as tumor volume at 7.5 mg/kg, ip measured every fourth day (reference value: 1917.6 +/- 280.3 mm3); format: functional, MIA PaCa-2
# Mus musculus [9] = assay: Toxicity in BALB/cAJcl-nu/nu mouse xenografted with human MIAPaCa2 cells assessed as body weight loss at 7.5 mg/kg, ip measured every fifth day; format: organism-based, MIA PaCa-2; settings: in vivo
# [10] = Antitumor activity against human MIAPaCa2 cells xenografted in BALB/cAJcl-nu/nu mouse assessed as reduction in tumor volume at 7.5 mg/kg, ip measured every fourth day relative to control; format: functional, MIA PaCa-2
SMILES,PC50 [1],inhibition at 30 µM [2],further results
Oc1ccccc1Cn1c2c(c3ccccc31)CCN(Cc1ccccc1)C2=S,2.23 µM,< 50%,
O=C1c2c(c3ccccc3n2Cc2cccc(O)c2)CCN1Cc1ccccc1,44.8 µM,,
Oc1cccc(Cn2c3c(c4ccccc42)CCN(Cc2ccccc2)C3=S)c1,1.96 µM,< 50%,Activity (Mus musculus [3]): Non-toxic; fold change (FC) [4]: 1.6; Activity [5]: 1203.9 mm3
Oc1ccc(Cn2c3c(c4ccccc42)CCN(Cc2ccccc2)C3=S)cc1,1.68 µM,,PC50 [6]: 20 µM
S=C1c2c(c3ccccc3n2Cc2ccc(Cl)cc2)CCN1Cc1ccccc1,,< 50%,inhibition at 30 µM [7]: < 50%
S=C1c2c(c3ccccc3n2Cc2ccccc2)CCN1Cc1ccccc1,,< 50%,inhibition at 30 µM [7]: < 50%
O=C1OCCc2c1n(Cc1cccc(O)c1)c1ccccc21,131.7 µM,,
COc1cc(Cn2c3c(c4ccccc42)CCN(Cc2ccccc2)C3=S)ccc1O,2.54 µM,,PC50 [6]: 8.15 µM
Oc1ccc(Cn2c3c(c4ccccc42)CCN(Cc2ccccc2)C3=S)cc1O,4.56 µM,< 50%,
Oc1cc(O)cc(Cn2c3c(c4ccccc42)CCN(Cc2ccccc2)C3=S)c1,4.81 µM,< 50%,
COc1cc(C[C@H]2C(=O)OC[C@@H]2Cc2ccc(OC)c(OC)c2)ccc1O [ARCTIGENIN],1.27 µM,< 50%,Activity [8]: 856.8 mm3; Activity (Mus musculus [9]): Non-toxic; fold change (FC) [10]: 2.2
COc1cc(O)cc(Cn2c3c(c4ccccc42)CCN(Cc2ccccc2)C3=S)c1,4.2 µM,< 50%,
COc1ccc(Cn2c3c(c4ccccc42)CCN(Cc2ccccc2)C3=S)cc1,,< 50%,inhibition at 30 µM [7]: < 50%
Fc1ccc(Cn2c3c(c4ccccc42)CCN(Cc2ccccc2)C3=S)cc1,,,PC50 [6]: 152.6 µM; inhibition at 30 µM [7]: < 50%
COc1ccc(Cn2c3c(c4ccccc42)CCN(Cc2ccccc2)C3=S)cc1O,7.07 µM,< 50%,
Oc1cccc(Cn2ccc3ccccc32)c1,173.7 µM,,
